The values below come from patent US9493480B2, “Monomeric trioxane amide sulfur compounds” (THE JOHNS HOPKINS UNIVERSITY, priority 2011, dated 2016).

Bounds are passed on as bounds.

Data set [1] has as its system Plasmodium berghei, ANKA malaria strain. As to the kind of experiment: In vivo antimalarial efficacy, single oral dose of trioxane combined with mefloquine hydrochloride in P. berghei infected mice. The settings on record: for cure outcome (survival to day 30 with no detectable parasites = complete cure): single oral dose of trioxane (6 mg/kg) combined with mefloquine hydrochloride (18 mg/kg); for parasitemia on day 30 after infection in surviving mice: value of one mouse where so stated. The method, then:
[…] Rosenthal, A. S., et al., Malaria-infected Mice are Cured by a Single Oral Dose of New Dimeric Trioxane Sulfones Which are Also Selectively and Powerfully Cytotoxic to Cancer Cells. J. Med. Chem. 2009, 52, 1198-1203. Each of four mice in a group was treated orally 24 hours post infection with a single dose of 0.20 mL [(0.20 mL/1.07 mL)×0.64 mg=0.12 mg] of diluted trioxane solution, […] Alternatively, a single dose of 7.5 mg/kg of trioxane plus 15.0 mg/kg of mefloquine hydrochloride was used. The malariometrics used involved determining blood parasitemia levels, as well as monitoring the duration of animal survival compared to survival time of infected animals receiving no drug.
The average survival time of the malaria-infected animals receiving no drug was 6.8 days post infection. All of the infected mice in this study receiving the trioxane drug artemether (2b) plus mefloquine died on the average on day 18.8 post infection (Table 1, controls). Additionally, a single oral dose of artemether (6 mg/kg) plus lumefantrine (18 mg/kg) was not curative (see Table 1), with the mice dying an average of 12.5 days after infection. […]
(§1) A widely accepted indication of complete cure (i.e., 100% efficacy) is survival of animals to day 30 post infection with no detectable malaria parasites in the animals' blood at that time. It is important to note that the combination of the standard trioxane drug artemether (2b), with either mefloquine hydrochloride or lumefantrine, was not curative (Table 1, controls). […] While 3-fluoroanilide 12b was not curative, administration of 3-methylthioether 3-arteSanilide 12d at a dose of 7.5 mg/kg plus 15 mg/kg mefloquine hydrochloride achieved mouse survival through day 30 after infection; however, all four of the surviving mice appeared sick and had considerable parasitemia levels (25-50%). […] In addition, 3-arteSanilide 12d is more efficacious than 4-arteSanilide 12c. […] Replacing the sulfur atom in 12d with an oxygen atom afforded methyl ether 12p, which prolonged survival time to only 21.8 days after infection. This observation indicates the critical nature of the sulfur atom. In addition, the lipophilicity of 3-arteSanilide 12d was increased by lengthening the alkyl sulfide chain from methyl to n-propyl. 3-n-Propyl sulfide 12l, however, is much less efficacious than the curative methyl sulfide 3-arteSanilide 12d.

For data set [2], the system named is P. falciparum (NF54) Parasites. As to the kind of experiment: In vitro antimalarial potencies of trioxanes against P. falciparum (NF54) parasites. In kind it is cell-based. The settings on record: Plasmodium falciparum, M ± SD of at least four determinations. On the procedure:
Biology: In Vitro Potencies. Prompted by the unexpected in vivo efficacy of 3-arteSanilide 12d, the in vitro the intrinsic antimalarial activity, free of host-mediated factors, was assayed of compounds that differ in the oxidative state of the sulfur atom (Table 2).

The nature of data set [3]: Overt toxicity, behavior and weight gain of treated malaria-infected mice. The settings on record: single oral dose 100 mg/kg, no mefloquine. Format: in vivo. The method, then: as §1
[4] abbreviates: single oral dose 24 h post infection: trioxane 6 mg/kg + mefloquine hydrochloride 18 mg/kg, C57BL/6J male mice, 4 per group.
Where [5] appears, read: single oral dose: trioxane 6 mg/kg + mefloquine hydrochloride 18 mg/kg.
Where [6] appears, read: mefloquine hydrochloride alone, single oral dose 15 mg/kg.
[7] abbreviates: mefloquine hydrochloride alone, single oral dose 18 mg/kg.
Where [8] appears, read: single oral dose: trioxane 7.5 mg/kg + mefloquine hydrochloride 15 mg/kg.
Where [9] appears, read: single oral dose: trioxane 7.5 mg/kg + mefloquine hydrochloride 15 mg/kg, mice, 4 per group.
Where [10] appears, read: single oral dose: artemether 6 mg/kg + lumefantrine 18 mg/kg.

With `CSc1ccccc1NC(=O)CC[C@H]1O[C@@H]2O[C@@]3(C)CC[C@H]4[C@H](C)CC[C@@H]([C@H]1C)[C@@]24OO3` [12e, 2-arteSanilide], the “average survival (days) after infection” value in data set [1] (setting [4]) was 27.0 days. Also, the “% suppression of parasitemia (on day 3 after infection)” value (from here on “% suppression of parasitemia”) in data set [1] (setting [5]) is on record as above 99.9%.

Take `Cl.OC(c1cc(C(F)(F)F)nc2c(C(F)(F)F)cccc12)C1CCCCN1` (centres unmarked) [mefloquine, mefloquine hydrochloride, reference compound]: in data set [1] (setting [6]), the “% suppression of parasitemia” value is recorded as above 99.9% and the “average survival (days) after infection” value worked out at 15.5 days. Also, in data set [1] (setting [7]), the “% suppression of parasitemia” value is given as above 99.9% and the “average survival (days) after infection” value was determined as 19.8 days.

Turning to `COc1cccc(NC(=O)CC[C@H]2O[C@@H]3O[C@]4(C)CC[C@H]5[C@H](C)CC[C@@H]([C@H]2C)[C@@]35OO4)c1` [12p], the “average survival (days) after infection” value in data set [1] (setting [4]) is 21.8 days. Moreover, the “% suppression of parasitemia” value in data set [1] (setting [5]) is reported as above 99.9%.

For the compound `CSc1ccc(NC(=O)CC[C@H]2O[C@@H]3O[C@@]4(C)CC[C@H]5[C@H](C)CC[C@@H]([C@H]2C)[C@@]35OO4)cc1` [12c, 4-arteSanilide], in data set [1] (setting [8]), the “% suppression of parasitemia” value is on record as above 99.9%. In addition, in data set [1] (setting [9]), the “average survival (days) after infection” value was 16.3 days.

On to `C[C@H]1[C@@H](CCC(=O)Nc2ccc(S(C)(=O)=O)cc2)O[C@@H]2O[C@]3(C)CC[C@H]4[C@H](C)CC[C@@H]1[C@@]24OO3` [12i], for which the “% suppression of parasitemia” value in data set [1] (setting [8]) was above 99.9%. For the same compound, the “average survival (days) after infection” value in data set [1] (setting [9]) turned out to be 22.5 days.

As for `CCCSc1cccc(NC(=O)CC[C@H]2O[C@@H]3O[C@]4(C)CC[C@H]5[C@H](C)CC[C@@H]([C@H]2C)[C@@]35OO4)c1` [12l], the “average survival (days) after infection” value in data set [1] (setting [4]) came to 23.0 days. Besides, the “% suppression of parasitemia” value in data set [1] (setting [5]) is listed as above 99.9%.

In the case of `CO[C@H]1O[C@@H]2O[C@@]3(C)CC[C@H]4[C@H](C)CC[C@@H]([C@H]1C)[C@@]24OO3` [artemether (2b), artemether, reference compound], the “average survival (days) after infection” value in data set [1] (setting [4]) came to 18.8 days; in data set [1] (setting [10]), 12.5 days; in data set [1] (setting [9]), 19.8 days. Besides, the “% suppression of parasitemia” value in data set [1] (setting [10]), in data set [1] (setting [5]) and in data set [1] (setting [8]) was above 99.9% in each case.

Turning to `CCCS(=O)(=O)c1cccc(NC(=O)CC[C@H]2O[C@@H]3O[C@]4(C)CC[C@H]5[C@H](C)CC[C@@H]([C@H]2C)[C@@]35OO4)c1` [12m], the “average survival (days) after infection” value in data set [1] (setting [4]) is 11.0 days. Moreover, the “% suppression of parasitemia” value in data set [1] (setting [5]) is listed as above 99.9%.

As a reminder, the EC50 is the concentration giving half of the maximal effect. As for `C[C@H]1[C@@H](CCC(=O)Nc2cccc([S+](C)[O-])c2)O[C@@H]2O[C@@]3(C)CC[C@H]4[C@H](C)CC[C@@H]1[C@@]24OO3` (some centres unmarked) [12g], in data set [1] (setting [4]), the “average survival (days) after infection” value turned out to be 23.0 days. Moreover, in data set [1], the “cure outcome (survival to day 30 with no detectable parasites = complete cure)” value is reported as “does not”. In addition, in data set [1] (setting [5]), the “% suppression of parasitemia” value is listed as above 99.9%. The EC50 in data set [2] stood at 23 ± 1.3 nM.

With `C[C@H]1[C@@H](CCC(=O)Nc2cccc(S(C)(=O)=O)c2)O[C@@H]2O[C@@]3(C)CC[C@H]4[C@H](C)CC[C@@H]1[C@@]24OO3` [12j], the “% suppression of parasitemia” value in data set [1] (setting [8]) came to 99.9%. Further, the “average survival (days) after infection” value in data set [1] (setting [9]) worked out at 15.5 days. In addition, in data set [2], the EC50 was 21 ± 1.1 nM.

`CCCCCCOc1ccc(NC(=O)CC[C@H]2O[C@@H]3O[C@]4(C)CC[C@H]5[C@H](C)CC[C@@H]([C@H]2C)[C@@]35OO4)cc1` [12q]: the “% suppression of parasitemia” value in data set [1] (setting [8]) is given as above 99.9%. Moreover, in data set [1] (setting [9]), the “average survival (days) after infection” value is on record as 15.0 days.

With `CCCCN(CCCC)CC(O)c1cc(Cl)cc2c1-c1ccc(Cl)cc1/C2=C/c1ccc(Cl)cc1` (centres unmarked) [lumefantrine, reference compound], the inhibition in vivo at 18 mg/kg in data set [1] (Plasmodium berghei, po, 72 h, read-out: % suppression of parasitemia (on day 3 after infection)) was above 99.9%. In addition, the “average survival (days) after infection” value in data set [1] (lumefantrine alone, single oral dose 18 mg/kg) worked out at 21.5 days.

As for `C[C@H]1[C@@H](CCC(=O)Nc2cccc([S+](C)[O-])c2)O[C@@H]2O[C@]3(C)CC[C@H]4[C@H](C)CC[C@@H]1[C@@]24OO3` (some centres unmarked) [12h], the “average survival (days) after infection” value in data set [1] (setting [4]) was 30 days. For the same compound, in data set [1], the “cure outcome (survival to day 30 with no detectable parasites = complete cure)” value is reported as “partially curative”. In data set [1] (setting [5]), the “% suppression of parasitemia” value is reported as above 99.9% and the “parasitemia on day 30 after infection in surviving mice” value is given as “^eOne mouse had 1.8% parasitemia on day 30 after infection”. In data set [2], this compound had an EC50 of 29 ± 0.43 nM.

As for `C[C@H]1[C@@H](CCC(=O)Nc2ccc(S(C)(=O)=O)cc2Cl)O[C@@H]2O[C@]3(C)CC[C@H]4[C@H](C)CC[C@@H]1[C@@]24OO3` [12o], the “% suppression of parasitemia” value in data set [1] (setting [8]) was above 99.9%. The “average survival (days) after infection” value in data set [1] (setting [9]) amounted to 24.5 days.

For the compound `C[C@H]1[C@@H](CCC(=O)Nc2ccccc2S(C)(=O)=O)O[C@@H]2O[C@]3(C)CC[C@H]4[C@H](C)CC[C@@H]1[C@@]24OO3` [12k], in data set [1] (setting [8]), the “% suppression of parasitemia” value is given as above 99.9%. Further, the “average survival (days) after infection” value in data set [1] (setting [9]) is 22.8 days.

Consider `CSc1cc(NC(=O)CC[C@H]2O[C@@H]3O[C@@]4(C)CC[C@H]5[C@H](C)CC[C@@H]([C@H]2C)[C@@]35OO4)cc(SC)c1` [12f, 3,5-arteSSanilide], for which, in data set [1] (Plasmodium berghei, 72 h, single oral dose: trioxane 100 mg/kg, no mefloquine, read-out: % suppression of parasitemia (on day 3 after infection)), the inhibition in vivo at 100 mg/kg was found to be 97.9%. Also, the “mouse survival in words” value in data set [1] (single oral dose 100 mg/kg, no mefloquine) is given as “essentially no increase in mouse longevity”. The “average survival (days) after infection” value in data set [1] (setting [4]) is 30 days. Further, the “cure outcome (survival to day 30 with no detectable parasites = complete cure)” value in data set [1] is recorded as “partially curative”. In data set [1] (setting [5]), the “% suppression of parasitemia” value was above 99.9%; the “parasitemia on day 30 after infection in surviving mice” value was 5% and ^dThree mice were parasite-free on day 30, but one mouse had 5% parasitemia on day 30 after infection. In data set [1] (single oral dose: trioxane 100 mg/kg, no mefloquine), the “average survival (days) after infection” value is 7.5 days. This compound also showed an EC50 in data set [2] of 6.5 ± 0.28 nM. Also, in data set [3], the “toxicity of single oral dose” value is listed as “nontoxic”.

Turning to `CCCS(=O)(=O)c1ccccc1NC(=O)CC[C@H]1O[C@@H]2O[C@]3(C)CC[C@H]4[C@H](C)CC[C@@H]([C@H]1C)[C@@]24OO3` [12n], the “average survival (days) after infection” value in data set [1] (setting [4]) was found to be 21.8 days. Also, in data set [1] (setting [5]), the “% suppression of parasitemia” value is reported as above 99.9%.
